# From patent US9643973B1, “Crystalline form of diclosulam, a process for its preparation and use of the same” (Rotam Agrochem International Company Limited, priority 2016, dated 2017)
# Where two headings read alike, the source gives them in different places.
# Legend:
# [1] = Viscosity (stated in words, no method given); format: physicochemical
# [2] = format: physicochemical; conditions: for Concentration measured by HPLC after treatment: pH 7 buffer, 20° C.
# Description: A stock pH 7 buffer solution was prepared by adding aqueous sodium hydroxide solution (0.1 M, 145 mL) to aqueous potassium dihydrogen phosphate solution (0.1 M, 250 mL), and then adding sufficient distilled water to adjust the final volume to 500 mL. At least 1 time and up to about 5 times the amount of diclosulam needed for saturation was added to a mixing vessel containing stock buffer solution at the test temperature (e.g., 20° C.). The mixture was magnetically stirred in the dark while being maintained at the test temperature and the samples were intermittently and periodically removed for analysis. The samples were centrifuged using a high speed, temperature-controlled centrifuge at the test temperature for about 20 minutes at ≧12000 G to remove suspended particles. An aliquot of each supernatant was taken for analysis. The concentration of diclosulam in the supernatant was determined by a high pressure liquid chromatography (HPLC) with a reversed phase chromatography column and UV detection. The method should include development of best-fit calibration curves based on at least three standards using linear regression analysis Samples were successively withdrawn from the mixing vessel and analyzed until three successive samples show little or no variation in concentration. The test is preferably replicated to ensure accuracy.
# [3] = OD formulation, original concentration 40%
# [4] = SG formulation, original concentration 25%
# [5] = WG formulation, original concentration 25%
Structure (SMILES),Viscosity (in words) ([1]; listed as diclosulam in amorphous state),"Concentration measured by HPLC after treatment [2, 3] [%]","Concentration measured by HPLC after treatment [2, 4] [%]","Concentration measured by HPLC after treatment [2, 5] [%]",Viscosity (in words) ([1]; listed as crystalline modification I of diclosulam),Solubility (in words) [2]
"CCOc1nc(F)cc2nc(S(=O)(=O)Nc3c(Cl)cccc3Cl)nn12 [Amorphous diclosulam, 2′,6′-dichloro-5-ethoxy-7-fluoro[1,2,4]triazolo[1,5-c]pyrimidine-2-sulfonanilide, reference compound]",highly viscous,14,15,12,,
"CCOc1nc(F)cc2nc(S(=O)(=O)Nc3c(Cl)cccc3Cl)nn12 [Diclosulam, crystalline modification I, 2′,6′-dichloro-5-ethoxy-7-fluoro[1,2,4]triazolo[1,5-c]pyrimidine-2-sulfonanilide]",,35,24.9,23,significant decrease,significant increase
